Measured values taken from the supplement of paper PMC7661543.
± gives the standard deviation of the averaged measurements.

Tests used:
Assay in all cases: relative cell number vs DMSO control (72 h) (% of DMSO); higher = less growth inhibition (more cells)
Settings in all cases: sgRNA knockout: sgNT
ZR-75-1 = tested on: ZR-75-1
Protocol: (§1)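 QMAP-Seq: a pool of 5 breast cancer cell lines (ZR-75-1, SKBR3, HCC-38, MDA-MB-231, BT-20), each carrying 12 doxycycline-inducible Cas9 sgRNA perturbations (11 knockouts plus non-targeting sgNT), was treated with compounds for 72 h at four 10-fold doses (10 nM-10 uM or 1 nM-1 uM range). Barcodes were amplified and sequenced, and cell number was interpolated from 293T spike-in standard curves. The result is expressed as % of the median of DMSO wells. Two biological replicates.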

SKBR3 = tested on: SKBR3
Protocol: as §1

BT-20 = tested on: BT-20
Protocol: as §1

MDA-MB-231 = tested on: MDA-MB-231
Protocol: as §1

HCC-38 = tested on: HCC-38
Protocol: as §1

| Structure (SMILES) | relative cell number (ZR-75-1; 10 nM) | relative cell number (ZR-75-1; 100 nM) | relative cell number (ZR-75-1; 1000 nM) | relative cell number (ZR-75-1; 10000 nM) | relative cell number (SKBR3; 10 nM) | relative cell number (SKBR3; 100 nM) | relative cell number (SKBR3; 1000 nM) | relative cell number (SKBR3; 10000 nM) | relative cell number (BT-20; 10 nM) | relative cell number (BT-20; 100 nM) | relative cell number (BT-20; 1000 nM) | relative cell number (BT-20; 10000 nM) | relative cell number (MDA-MB-231; 10 nM) | relative cell number (MDA-MB-231; 100 nM) | relative cell number (MDA-MB-231; 1000 nM) | relative cell number (MDA-MB-231; 10000 nM) | relative cell number (HCC-38; 10 nM) | relative cell number (HCC-38; 100 nM) | relative cell number (HCC-38; 1000 nM) | relative cell number (HCC-38; 10000 nM) | relative cell number (ZR-75-1; 1 nM) | relative cell number (SKBR3; 1 nM) | relative cell number (BT-20; 1 nM) | relative cell number (MDA-MB-231; 1 nM) | relative cell number (HCC-38; 1 nM) |
| --- | --- | --- | --- | --- | --- | --- | --- | --- | --- | --- | --- | --- | --- | --- | --- | --- | --- | --- | --- | --- | --- | --- | --- | --- | --- |
| O=c1[nH]cc(F)c(=O)[nH]1 [5-Fluorouracil] | 103 ± 28 | 83.2 ± 13 | 51.6 ± 1.8 | 41 ± 11 | 97.9 ± 14 | 79.7 ± 19 | 65.4 ± 18 | 17.5 ± 3.4 | 115 ± 7.9 | 110 ± 3.4 | 78.4 ± 7 | 57.9 ± 2.7 | 86.6 ± 16 | 113 ± 28 | 119 ± 16 | 49.2 ± 6.5 | 95.2 ± 6.8 | 121 ± 15 | 107 ± 21 | 66.2 ± 6.2 | – | – | – | – | – |
| S=c1nc[nH]c2nc[nH]c12 [6-Mercaptopurine] | 100 ± 55 | 66.5 ± 5.7 | 100 ± 59 | 55.5 ± 22 | 112 ± 11 | 83.1 ± 39 | 78.3 ± 21 | 48.4 ± 25 | 97.8 ± 13 | 101 ± 4.8 | 85.3 ± 6 | 62.7 ± 4.4 | 120 ± 2.9 | 79.8 ± 1.3 | 60.6 ± 15 | 63.5 ± 7.8 | 99.6 ± 7 | 99.7 ± 5.1 | 81.3 ± 10 | 61.3 ± 2.1 | – | – | – | – | – |
| Cc1sc2c(c1C)C(c1ccc(Cl)cc1)=N[C@@H](CC(=O)OC(C)(C)C)c1nnc(C)n1-2 [(+)-JQ1] | 98.5 ± 22 | 122 ± 50 | 86.2 ± 21 | 49.4 ± 1.2 | 102 ± 17 | 119 ± 21 | 91.5 ± 2.7 | 62.6 ± 3.5 | 99.3 ± 17 | 108 ± 1.9 | 108 ± 4.7 | 93.5 ± 4 | 109 ± 30 | 99.7 ± 4 | 105.4 ± 0.35 | 50.7 ± 18 | 104 ± 4.2 | 112 ± 33 | 93.2 ± 1.9 | 65.3 ± 1.1 | – | – | – | – | – |
| CN(C)CC[C@H](CSc1ccccc1)Nc1ccc(S(=O)(=O)NC(=O)c2ccc(N3CCN(Cc4ccccc4-c4ccc(Cl)cc4)CC3)cc2)cc1[N+](=O)[O-] [ABT737] | 74.8 ± 17 | 117 ± 40 | 124 ± 25 | 73.9 ± 11 | 84.5 ± 11 | 98.2 ± 4.7 | 85.7 ± 9.8 | 93.31 ± 0.55 | 93.2 ± 26 | 97.5 ± 10 | 94.8 ± 13 | 69.2 ± 5.1 | 96.3 ± 18 | 102 ± 21 | 90.4 ± 30 | 69.4 ± 16 | 104 ± 3.7 | 84 ± 12 | 88.2 ± 4.7 | 62.5 ± 18 | – | – | – | – | – |
| c1cc(Nc2cc(C3CC3)[nH]n2)nc(Nc2ccc3nc[nH]c3c2)n1 [APY29] | 119 ± 26 | 74 ± 39 | 23.6 ± 1.6 | 10.7 ± 9.5 | 110 ± 9 | 40.6 ± 1.2 | 12.5 ± 6.6 | 5.99 ± 1.9 | 120 ± 4.3 | 79.9 ± 16 | 88.3 ± 10 | 40.7 ± 5.9 | 109 ± 5.4 | 52.8 ± 4.2 | 17.1 ± 3.7 | 10.7 ± 3.8 | 91.3 ± 16 | 64.3 ± 3.1 | 26.6 ± 2.5 | 23.3 ± 0.34 | – | – | – | – | – |
| Clc1ccc(C2(c3ccc(-c4cn[nH]c4)cc3)CCNCC2)cc1 [AT7867] | 61.2 ± 35 | 64.4 ± 20 | 66.2 ± 5.2 | 11.1 ± 1.7 | 70.8 ± 4.4 | 102 ± 5 | 59.38 ± 0.082 | 10.8 ± 2.8 | 79.5 ± 20 | 108 ± 32 | 77.8 ± 12 | 24.8 ± 5.2 | 59.5 ± 17 | 84.9 ± 1.7 | 35.9 ± 6 | 14.5 ± 2.1 | 91.3 ± 5.8 | 64.1 ± 14 | 45.4 ± 2.5 | 50.5 ± 2.3 | – | – | – | – | – |
| COc1cc(CCc2cc(NC(=O)c3ccc(N4CC(C)NC(C)C4)cc3)n[nH]2)cc(OC)c1 (stereo not given) [AZD4547] | 82.1 ± 31 | 68.3 ± 13 | 83.9 ± 5.3 | 21.3 ± 10 | 62.3 ± 26 | 83 ± 9.8 | 94.1 ± 33 | 51 ± 14 | 66.6 ± 0.77 | 94.7 ± 4.5 | 81.9 ± 15 | 56.5 ± 2.4 | 79.2 ± 13 | 100.2 ± 0.6 | 99.5 ± 11 | 40.1 ± 3 | 88.6 ± 1.6 | 64.5 ± 6.9 | 54.6 ± 1.7 | 46.8 ± 1.9 | – | – | – | – | – |
| CN(C)C(=O)c1ccc(S(=O)(=O)c2ccc(NC(=O)[C@@](C)(O)C(F)(F)F)c(Cl)c2)cc1 [AZD7545] | 110 ± 7.3 | 116 ± 53 | 91.8 ± 25 | 42.7 ± 5.5 | 97.6 ± 9.6 | 103 ± 18 | 95.8 ± 11 | 70.3 ± 10 | 91.2 ± 24 | 103 ± 25 | 102 ± 22 | 95.7 ± 8.7 | 103 ± 17 | 121 ± 14 | 104 ± 39 | 89.5 ± 47 | 105 ± 6.3 | 90 ± 14 | 97.8 ± 1.1 | 82.9 ± 1.9 | – | – | – | – | – |
| C[C@@H](Nc1cc(F)cc(F)c1)c1cc(C(=O)N(C)C)cc2c(=O)cc(N3CCOCC3)oc12 [AZD8186] | 91.2 ± 19 | 103 ± 1.3 | 66.4 ± 4 | 49.1 ± 22 | 88.2 ± 0.97 | 103 ± 18 | 94.2 ± 6.8 | 59.6 ± 10 | 103 ± 9.9 | 117 ± 3.5 | 107 ± 23 | 98.3 ± 1.2 | 109 ± 3.1 | 134 ± 21 | 130 ± 80 | 83.4 ± 28 | 97.9 ± 24 | 105 ± 19 | 86.8 ± 7.5 | 79.5 ± 7.5 | – | – | – | – | – |
| C[C@]12CC[C@H](O)CC1=CC[C@@H]1[C@@H]2CC[C@]2(C)C(c3cccnc3)=CC[C@@H]12 [Abiraterone] | 115 ± 34 | 105 ± 18 | 90.5 ± 55 | – | 118 ± 15 | 114 ± 42 | 114 ± 10 | – | 115 ± 6.5 | 118 ± 20 | 116 ± 3.4 | – | 115 ± 3.5 | 99.4 ± 5.8 | 153 ± 19 | – | 107 ± 4.5 | 104 ± 5.2 | 116 ± 16 | – | 101 ± 16 | 139 ± 37 | 109 ± 10 | 127 ± 2.9 | 109 ± 2.1 |
| CN(C)C/C=C/C(=O)Nc1cc2c(Nc3ccc(F)c(Cl)c3)ncnc2cc1O[C@H]1CCOC1 [Afatinib] | 103 ± 7.7 | 72.2 ± 40 | 68.8 ± 6.8 | 13 ± 0.97 | 85.2 ± 6.7 | 34.5 ± 13 | 18.7 ± 0.37 | 10.8 ± 1.1 | 117 ± 13 | 66.9 ± 10 | 82.8 ± 8.8 | 20.2 ± 4.5 | 151 ± 15 | 77.1 ± 36 | 93.9 ± 5.5 | 15.6 ± 3.4 | 94.6 ± 18 | 101 ± 22 | 75.7 ± 7.1 | 21.2 ± 1.6 | – | – | – | – | – |
| COc1cc(Nc2ncc3c(n2)-c2ccc(Cl)cc2C(c2c(F)cccc2OC)=NC3)ccc1C(=O)O [Alisertib] | 82.4 ± 36 | 39.4 ± 3.1 | 42 ± 10 | 35.2 ± 1.5 | 121 ± 14 | 80.8 ± 8.3 | 77.2 ± 11 | 91.2 ± 9.5 | 92.5 ± 23 | 66.5 ± 8 | 77.8 ± 24 | 68.3 ± 5.7 | 112 ± 7.3 | 50.3 ± 15 | 59.5 ± 1.8 | 49.3 ± 8.4 | 99.89 ± 0.26 | 53.9 ± 1 | 57.4 ± 9.7 | 48.4 ± 1.9 | – | – | – | – | – |
